Reference: the NIST ThermoML archive (doi:10.1016/j.fluid.2015.03.048)
Numbers after ± are expanded uncertainties.

Assay: xn = mol fraction of the nth substance listed
Conditions: 303.15 K, 100 kPa, Liquid; for viscosity: Capillary tube (Ostwald / Ubbelohde) method; for excess molar volume: Direct dilatometry; for speed of sound: Frequency=3 MHz, Sing-around technique in a fixed-path interferometer; for mass density: Pycnometric method

Cc1ccc(Cl)cc1 [4-chlorotoluene] + CC(=O)N(C)C
viscosity (x2 = 0.0876): 0.897 ± 0.013 mPa·s
viscosity (x2 = 0.1205): 0.895 ± 0.013 mPa·s
viscosity (x2 = 0.1564): 0.893 ± 0.013 mPa·s
viscosity (x2 = 0.2145): 0.89 ± 0.013 mPa·s
viscosity (x2 = 0.2534): 0.888 ± 0.013 mPa·s
viscosity (x2 = 0.3011): 0.886 ± 0.013 mPa·s
viscosity (x2 = 0.374): 0.884 ± 0.013 mPa·s
viscosity (x2 = 0.495): 0.882 ± 0.013 mPa·s
viscosity (x2 = 0.5275): 0.88 ± 0.013 mPa·s
viscosity (x2 = 0.5543): 0.879 ± 0.013 mPa·s
viscosity (x2 = 0.6041): 0.878 ± 0.013 mPa·s
viscosity (x2 = 0.7047): 0.876 ± 0.013 mPa·s
viscosity (x2 = 0.762): 0.874 ± 0.013 mPa·s
viscosity (x2 = 0.8241): 0.872 ± 0.013 mPa·s
viscosity (x2 = 0.8806): 0.87 ± 0.013 mPa·s
excess molar volume (x2 = 0.0876): -6e-09 ± 6e-09 m3/mol
excess molar volume (x2 = 0.1205): -1e-08 ± 6e-09 m3/mol
excess molar volume (x2 = 0.1564): -1.2e-08 ± 6e-09 m3/mol
excess molar volume (x2 = 0.2145): -1.6e-08 ± 6e-09 m3/mol
excess molar volume (x2 = 0.2534): -1.9e-08 ± 6e-09 m3/mol
excess molar volume (x2 = 0.3011): -2.2e-08 ± 6e-09 m3/mol
excess molar volume (x2 = 0.374): -2.6e-08 ± 6e-09 m3/mol
excess molar volume (x2 = 0.495): -2.9e-08 ± 6e-09 m3/mol
excess molar volume (x2 = 0.5275): -2.9e-08 ± 6e-09 m3/mol
excess molar volume (x2 = 0.5543): -2.8e-08 ± 6e-09 m3/mol
excess molar volume (x2 = 0.6041): -2.7e-08 ± 6e-09 m3/mol
excess molar volume (x2 = 0.7047): -2.2e-08 ± 6e-09 m3/mol
excess molar volume (x2 = 0.762): -1.8e-08 ± 6e-09 m3/mol
excess molar volume (x2 = 0.8241): -1.4e-08 ± 6e-09 m3/mol
excess molar volume (x2 = 0.8806): -1e-08 ± 6e-09 m3/mol
speed of sound (x2 = 0.0699): 1286 ± 3 m/s
speed of sound (x2 = 0.0969): 1294 ± 3 m/s
speed of sound (x2 = 0.1267): 1303 ± 3 m/s
speed of sound (x2 = 0.1767): 1317 ± 3 m/s
speed of sound (x2 = 0.2099): 1326 ± 3 m/s
speed of sound (x2 = 0.2522): 1339 ± 3 m/s
speed of sound (x2 = 0.3187): 1359 ± 3 m/s
speed of sound (x2 = 0.4342): 1385 ± 3 m/s
speed of sound (x2 = 0.4664): 1392 ± 3 m/s
speed of sound (x2 = 0.4933): 1397 ± 3 m/s
speed of sound (x2 = 0.5443): 1403 ± 3 m/s
speed of sound (x2 = 0.6513): 1415 ± 3 m/s
speed of sound (x2 = 0.7148): 1420 ± 3 m/s
speed of sound (x2 = 0.7858): 1424 ± 3 m/s
speed of sound (x2 = 0.8524): 1425 ± 3 m/s
mass density (x2 = 0.0699): 1056.58 ± 11 kg/m3
mass density (x2 = 0.0969): 1053.3 ± 11 kg/m3
mass density (x2 = 0.1267): 1049.63 ± 11 kg/m3
mass density (x2 = 0.1767): 1043.58 ± 10 kg/m3
mass density (x2 = 0.2099): 1039.44 ± 10 kg/m3
mass density (x2 = 0.2522): 1034.25 ± 10 kg/m3
mass density (x2 = 0.3187): 1026.08 ± 10 kg/m3
mass density (x2 = 0.4342): 1011.83 ± 10 kg/m3
mass density (x2 = 0.4664): 1007.85 ± 10 kg/m3
mass density (x2 = 0.4933): 1004.51 ± 10 kg/m3
mass density (x2 = 0.5443): 998.18 ± 10 kg/m3
mass density (x2 = 0.6513): 984.88 ± 9.9 kg/m3
mass density (x2 = 0.7148): 976.97 ± 9.8 kg/m3
mass density (x2 = 0.7858): 968.12 ± 9.7 kg/m3
mass density (x2 = 0.8524): 959.81 ± 9.6 kg/m3

Cc1ccccc1[N+](=O)[O-] [2-nitrotoluene] + CC(=O)N(C)C
viscosity (x2 = 0.1025): 1.905 ± 0.023 mPa·s
viscosity (x2 = 0.1527): 1.877 ± 0.022 mPa·s
viscosity (x2 = 0.1835): 1.857 ± 0.022 mPa·s
viscosity (x2 = 0.2165): 1.835 ± 0.022 mPa·s
viscosity (x2 = 0.2775): 1.788 ± 0.021 mPa·s
viscosity (x2 = 0.3067): 1.763 ± 0.021 mPa·s
viscosity (x2 = 0.3641): 1.715 ± 0.02 mPa·s
viscosity (x2 = 0.4211): 1.663 ± 0.02 mPa·s
viscosity (x2 = 0.4727): 1.613 ± 0.019 mPa·s
viscosity (x2 = 0.5262): 1.559 ± 0.019 mPa·s
viscosity (x2 = 0.6053): 1.474 ± 0.018 mPa·s
viscosity (x2 = 0.7204): 1.336 ± 0.017 mPa·s
viscosity (x2 = 0.8162): 1.203 ± 0.015 mPa·s
viscosity (x2 = 0.895): 1.074 ± 0.014 mPa·s
viscosity (x2 = 0.967): 0.937 ± 0.013 mPa·s
excess molar volume (x2 = 0.1025): 1.4e-08 ± 6e-09 m3/mol
excess molar volume (x2 = 0.1527): 2e-08 ± 6e-09 m3/mol
excess molar volume (x2 = 0.1835): 2.5e-08 ± 6e-09 m3/mol
excess molar volume (x2 = 0.2165): 2.8e-08 ± 6e-09 m3/mol
excess molar volume (x2 = 0.2775): 3.5e-08 ± 6e-09 m3/mol
excess molar volume (x2 = 0.3067): 4e-08 ± 6e-09 m3/mol
excess molar volume (x2 = 0.3641): 4.7e-08 ± 6e-09 m3/mol
excess molar volume (x2 = 0.4211): 5.3e-08 ± 6e-09 m3/mol
excess molar volume (x2 = 0.4727): 5.8e-08 ± 6e-09 m3/mol
excess molar volume (x2 = 0.5262): 6e-08 ± 6e-09 m3/mol
excess molar volume (x2 = 0.6053): 5.8e-08 ± 6e-09 m3/mol
excess molar volume (x2 = 0.7204): 4.5e-08 ± 6e-09 m3/mol
excess molar volume (x2 = 0.8162): 3.2e-08 ± 6e-09 m3/mol
excess molar volume (x2 = 0.895): 2e-08 ± 6e-09 m3/mol
excess molar volume (x2 = 0.967): 7e-09 ± 6e-09 m3/mol
speed of sound (x2 = 0.0824): 2046 ± 3 m/s
speed of sound (x2 = 0.124): 2006 ± 3 m/s
speed of sound (x2 = 0.1501): 1978 ± 3 m/s
speed of sound (x2 = 0.1784): 1956 ± 3 m/s
speed of sound (x2 = 0.2318): 1897 ± 3 m/s
speed of sound (x2 = 0.2579): 1874 ± 3 m/s
speed of sound (x2 = 0.3103): 1817 ± 3 m/s
speed of sound (x2 = 0.3637): 1773 ± 3 m/s
speed of sound (x2 = 0.4133): 1734 ± 3 m/s
speed of sound (x2 = 0.466): 1696 ± 3 m/s
speed of sound (x2 = 0.5465): 1650 ± 3 m/s
speed of sound (x2 = 0.6694): 1592 ± 3 m/s
speed of sound (x2 = 0.7773): 1547 ± 3 m/s
speed of sound (x2 = 0.8701): 1506 ± 3 m/s
speed of sound (x2 = 0.9584): 1463 ± 3 m/s
mass density (x2 = 0.0824): 1135.81 ± 11 kg/m3
mass density (x2 = 0.124): 1126.98 ± 11 kg/m3
mass density (x2 = 0.1501): 1121.45 ± 11 kg/m3
mass density (x2 = 0.1784): 1115.46 ± 11 kg/m3
mass density (x2 = 0.2318): 1104.13 ± 11 kg/m3
mass density (x2 = 0.2579): 1098.58 ± 11 kg/m3
mass density (x2 = 0.3103): 1087.46 ± 11 kg/m3
mass density (x2 = 0.3637): 1076.12 ± 11 kg/m3
mass density (x2 = 0.4133): 1065.58 ± 11 kg/m3
mass density (x2 = 0.466): 1054.4 ± 11 kg/m3
mass density (x2 = 0.5465): 1037.36 ± 10 kg/m3
mass density (x2 = 0.6694): 1011.4 ± 10 kg/m3
mass density (x2 = 0.7773): 988.58 ± 9.9 kg/m3
mass density (x2 = 0.8701): 968.9 ± 9.7 kg/m3
mass density (x2 = 0.9584): 950.18 ± 9.5 kg/m3

Clc1cccc(Cl)c1 [1,3-dichlorobenzene] + CC(=O)N(C)C
viscosity (x2 = 0.1045): 1.024 ± 0.014 mPa·s
viscosity (x2 = 0.1525): 1.023 ± 0.014 mPa·s
viscosity (x2 = 0.1941): 1.022 ± 0.014 mPa·s
viscosity (x2 = 0.262): 1.021 ± 0.014 mPa·s
viscosity (x2 = 0.3235): 1.02 ± 0.014 mPa·s
viscosity (x2 = 0.4052): 1.019 ± 0.014 mPa·s
viscosity (x2 = 0.4672): 1.018 ± 0.014 mPa·s
viscosity (x2 = 0.522): 1.017 ± 0.014 mPa·s
viscosity (x2 = 0.6531): 1.016 ± 0.014 mPa·s
viscosity (x2 = 0.7245): 1.015 ± 0.014 mPa·s
viscosity (x2 = 0.7656): 1.014 ± 0.014 mPa·s
viscosity (x2 = 0.804): 1.013 ± 0.014 mPa·s
viscosity (x2 = 0.8631): 1.011 ± 0.014 mPa·s
viscosity (x2 = 0.9131): 1.007 ± 0.014 mPa·s
viscosity (x2 = 0.9743): 0.952 ± 0.013 mPa·s
excess molar volume (x2 = 0.1045): -3e-08 ± 6e-09 m3/mol
excess molar volume (x2 = 0.1525): -4.5e-08 ± 6e-09 m3/mol
excess molar volume (x2 = 0.1941): -5.4e-08 ± 6e-09 m3/mol
excess molar volume (x2 = 0.262): -6.7e-08 ± 6e-09 m3/mol
excess molar volume (x2 = 0.3235): -7.5e-08 ± 6e-09 m3/mol
excess molar volume (x2 = 0.4052): -7.7e-08 ± 6e-09 m3/mol
excess molar volume (x2 = 0.4672): -7.3e-08 ± 6e-09 m3/mol
excess molar volume (x2 = 0.522): -6.6e-08 ± 6e-09 m3/mol
excess molar volume (x2 = 0.6531): -4e-08 ± 6e-09 m3/mol
excess molar volume (x2 = 0.7245): -2.5e-08 ± 6e-09 m3/mol
excess molar volume (x2 = 0.7656): -1.4e-08 ± 6e-09 m3/mol
excess molar volume (x2 = 0.804): -7e-09 ± 6e-09 m3/mol
excess molar volume (x2 = 0.8631): 2e-09 ± 6e-09 m3/mol
speed of sound (x2 = 0.0879): 1277 ± 3 m/s
speed of sound (x2 = 0.1294): 1284 ± 3 m/s
speed of sound (x2 = 0.1659): 1290 ± 3 m/s
speed of sound (x2 = 0.2267): 1301 ± 3 m/s
speed of sound (x2 = 0.2831): 1312 ± 3 m/s
speed of sound (x2 = 0.3601): 1326 ± 3 m/s
speed of sound (x2 = 0.42): 1337 ± 3 m/s
speed of sound (x2 = 0.4742): 1347 ± 3 m/s
speed of sound (x2 = 0.6086): 1372 ± 3 m/s
speed of sound (x2 = 0.6847): 1385 ± 3 m/s
speed of sound (x2 = 0.7295): 1393 ± 3 m/s
speed of sound (x2 = 0.7721): 1400 ± 3 m/s
speed of sound (x2 = 0.8389): 1413 ± 3 m/s
speed of sound (x2 = 0.8967): 1429 ± 3 m/s
speed of sound (x2 = 0.969): 1437 ± 3 m/s
mass density (x2 = 0.0879): 1248.69 ± 13 kg/m3
mass density (x2 = 0.1294): 1235.21 ± 12 kg/m3
mass density (x2 = 0.1659): 1223.28 ± 12 kg/m3
mass density (x2 = 0.2267): 1203.33 ± 12 kg/m3
mass density (x2 = 0.2831): 1184.73 ± 12 kg/m3
mass density (x2 = 0.3601): 1159.16 ± 12 kg/m3
mass density (x2 = 0.42): 1139.1 ± 11 kg/m3
mass density (x2 = 0.4742): 1120.88 ± 11 kg/m3
mass density (x2 = 0.6086): 1075.37 ± 11 kg/m3
mass density (x2 = 0.6847): 1049.44 ± 11 kg/m3
mass density (x2 = 0.7295): 1034.11 ± 10 kg/m3
mass density (x2 = 0.7721): 1019.55 ± 10 kg/m3
mass density (x2 = 0.8389): 996.66 ± 10 kg/m3
mass density (x2 = 0.8967): 969.13 ± 9.7 kg/m3
mass density (x2 = 0.969): 945.84 ± 9.5 kg/m3
